The values that follow come from patent publication US6342604B1, “Substitute pyrimidine compounds and the use thereof” (BASF Aktiengesellschaft, priority 1994, dated 2002).

The test addresses T1, human D3 receptor (Homo sapiens, UniProt P35462).
T1 construct: host or cells: CCL 1.3 mouse fibroblasts
The test is described as follows: D3 receptor binding assay (125I-iodosulpiride displacement). The note with it: for Selectivity Ki D2/Ki D3: ratio of Ki D2 (3H-spiperone) to Ki D3 (125I-sulpiride). On the procedure: Cloned human D3 receptor-expressing CCL 1.3 mouse fibroblasts obtained from Res. Biochemicals Internat. One Strathmore Rd., Natick, Mass.
After 48 h, the cells were washed with PBS and incubated with 0.05% trypsin-containing PBS for 5 min. Neutralization with medium was then carried out, and the cells were collected by centrifugation at 300 xg. To lyze the cells, the pellet was briefly washed with lysis buffer (5 mM tris-HCl, pH 7.4, with 10% glycerol) and then incubated in a concentration of 10^7 cells/ml of lysis buffer at 4° C. for 30 min. The cells were centrifuged at 200 xg for 10 min and the pellet was stored in liquid nitrogen.
The non-specific binding was determined using 10^−6 M spiperone.
After 60 min, the free and the bound radioligand was separated by filtration through GF/B glass fiber filters (Whatman, England) on a Skatron cell collector (Skatron, Lier, Norway), and the filters were washed with ice-cold tris-HCl buffer, pH 7.4. The radioactivity collected on the filters was quantified using a Packard 2200 CA liquid scintillation counter.
The Ki values were determined by non-linear regression analysis using the LIGAND program.

[1] abbreviates: cloned human D3 receptor, CCL 1.3 mouse fibroblast membranes, 0.1 nM 125iodosulpiride, read-out: Receptor binding D3 125I-sulpiride Ki.

pKi: −log10 of the molar value. Where two headings read alike, the source gives them in different places.

T1 sequence (P35462 whole entry): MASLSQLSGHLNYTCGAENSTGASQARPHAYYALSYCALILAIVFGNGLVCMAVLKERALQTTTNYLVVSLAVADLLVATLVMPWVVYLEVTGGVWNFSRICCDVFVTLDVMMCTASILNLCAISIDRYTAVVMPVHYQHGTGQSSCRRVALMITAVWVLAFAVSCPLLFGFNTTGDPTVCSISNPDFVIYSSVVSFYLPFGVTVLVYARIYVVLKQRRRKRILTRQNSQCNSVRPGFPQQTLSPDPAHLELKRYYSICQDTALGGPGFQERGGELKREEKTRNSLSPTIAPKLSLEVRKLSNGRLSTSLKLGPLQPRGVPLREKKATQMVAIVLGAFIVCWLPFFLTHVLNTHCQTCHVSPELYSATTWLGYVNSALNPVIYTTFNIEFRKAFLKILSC

For `CC(C)c1cccc(N2CCN(CCCSc3nccc(O)n3)CC2)c1` [Example 17], the “Selectivity Ki D2/Ki D3” value is 71. Besides, the negative logarithm of the Ki (pKi) under setting [1] is 8.55.
On the same counts, the results for `Oc1ccnc(SC/C=C/CN2CCN(c3cccc(C(F)(F)F)c3)CC2)n1` [Example 13] are 61 and 8.64.
Consider `Oc1ccnc(SCCCN2CC=C(c3cccc(C(F)(F)F)c3)CC2)n1` [Example 19], for which the pKi is 8.52 and the “Selectivity Ki D2/Ki D3” value is 58.
On the same counts, the results for `Oc1ccnc(SCCCN2CCN(c3cccc(C(F)(F)F)c3)CC2)n1` [Example 12] are 8.38 and 85.
